ChEMBL document CHEMBL1145498, “A systematic interaction map of validated kinase inhibitors with Ser/Thr kinases” (Proc Natl Acad Sci U S A, 2007)

Key:
[1] = molecular target: Serine/threonine-protein kinase pim-3 (Homo sapiens) (UniProt Q86V86)
[2] = molecular target: Ribosomal protein S6 kinase alpha-3 (Homo sapiens) (UniProt P51812)
[3] = molecular target: Calcium/calmodulin-dependent protein kinase type II subunit gamma (Homo sapiens) (UniProt Q13555)
[4] = molecular target: T1, Serine/threonine-protein kinase VRK3 (Homo sapiens) (UniProt Q8IV63)
T1 sequence (whole entry): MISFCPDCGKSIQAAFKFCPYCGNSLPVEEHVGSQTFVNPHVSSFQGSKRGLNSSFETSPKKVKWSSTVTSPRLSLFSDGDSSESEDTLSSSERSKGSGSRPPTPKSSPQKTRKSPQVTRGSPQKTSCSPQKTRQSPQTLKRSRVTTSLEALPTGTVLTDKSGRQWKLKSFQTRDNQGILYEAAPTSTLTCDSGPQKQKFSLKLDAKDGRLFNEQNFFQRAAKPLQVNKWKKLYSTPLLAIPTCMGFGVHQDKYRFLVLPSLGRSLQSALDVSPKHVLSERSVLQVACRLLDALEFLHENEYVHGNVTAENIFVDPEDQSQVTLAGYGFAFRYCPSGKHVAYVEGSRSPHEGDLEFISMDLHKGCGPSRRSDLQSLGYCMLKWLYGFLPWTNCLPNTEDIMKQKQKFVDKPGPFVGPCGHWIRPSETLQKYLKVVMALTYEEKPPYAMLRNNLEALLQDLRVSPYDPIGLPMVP

[5] = molecular target: cAMP-dependent protein kinase catalytic subunit alpha (Homo sapiens) (UniProt P17612)
[6] = molecular target: T2, Dual specificity mitogen-activated protein kinase kinase 6 (Homo sapiens) (UniProt P52564)
T2 sequence (whole entry): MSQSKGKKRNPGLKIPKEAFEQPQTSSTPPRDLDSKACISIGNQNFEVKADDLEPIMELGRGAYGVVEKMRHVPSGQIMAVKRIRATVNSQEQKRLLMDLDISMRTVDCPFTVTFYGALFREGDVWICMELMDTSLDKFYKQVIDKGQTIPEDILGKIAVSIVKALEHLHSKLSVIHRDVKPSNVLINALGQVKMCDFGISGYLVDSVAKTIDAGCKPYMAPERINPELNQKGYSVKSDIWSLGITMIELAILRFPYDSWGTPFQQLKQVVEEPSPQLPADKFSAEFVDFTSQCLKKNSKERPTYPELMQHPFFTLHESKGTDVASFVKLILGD

[7] = molecular target: Serine/threonine-protein kinase 25 (Homo sapiens) (UniProt O00506)
[8] = molecular target: Serine/threonine-protein kinase PAK 6 (Homo sapiens) (UniProt Q9NQU5)
[9] = molecular target: Mitogen-activated protein kinase 6 (Homo sapiens) (UniProt Q16659)
Mitogen-activated protein kinase 6 (Homo sapiens), sequence (Q16659 whole entry): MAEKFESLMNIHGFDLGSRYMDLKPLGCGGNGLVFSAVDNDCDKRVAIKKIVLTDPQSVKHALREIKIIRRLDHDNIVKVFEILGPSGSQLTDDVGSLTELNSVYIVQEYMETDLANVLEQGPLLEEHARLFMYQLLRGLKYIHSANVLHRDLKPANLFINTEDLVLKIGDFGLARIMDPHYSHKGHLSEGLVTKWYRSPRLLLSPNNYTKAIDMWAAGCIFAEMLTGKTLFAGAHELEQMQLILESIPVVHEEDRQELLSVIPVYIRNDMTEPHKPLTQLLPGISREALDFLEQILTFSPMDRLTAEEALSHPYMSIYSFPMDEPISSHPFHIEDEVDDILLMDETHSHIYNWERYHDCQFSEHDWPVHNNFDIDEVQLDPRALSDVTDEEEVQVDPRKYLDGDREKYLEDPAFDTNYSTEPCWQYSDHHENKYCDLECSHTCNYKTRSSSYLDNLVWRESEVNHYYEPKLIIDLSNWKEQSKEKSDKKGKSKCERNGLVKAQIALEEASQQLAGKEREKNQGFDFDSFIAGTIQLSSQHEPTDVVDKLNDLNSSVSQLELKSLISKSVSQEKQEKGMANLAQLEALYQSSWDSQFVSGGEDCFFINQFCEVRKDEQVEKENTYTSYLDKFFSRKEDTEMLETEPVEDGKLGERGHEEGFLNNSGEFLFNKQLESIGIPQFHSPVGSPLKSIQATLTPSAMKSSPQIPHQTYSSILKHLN

[10] = molecular target: T3, Calcium/calmodulin-dependent protein kinase type IV (Homo sapiens) (UniProt Q16566)
T3 sequence (whole entry): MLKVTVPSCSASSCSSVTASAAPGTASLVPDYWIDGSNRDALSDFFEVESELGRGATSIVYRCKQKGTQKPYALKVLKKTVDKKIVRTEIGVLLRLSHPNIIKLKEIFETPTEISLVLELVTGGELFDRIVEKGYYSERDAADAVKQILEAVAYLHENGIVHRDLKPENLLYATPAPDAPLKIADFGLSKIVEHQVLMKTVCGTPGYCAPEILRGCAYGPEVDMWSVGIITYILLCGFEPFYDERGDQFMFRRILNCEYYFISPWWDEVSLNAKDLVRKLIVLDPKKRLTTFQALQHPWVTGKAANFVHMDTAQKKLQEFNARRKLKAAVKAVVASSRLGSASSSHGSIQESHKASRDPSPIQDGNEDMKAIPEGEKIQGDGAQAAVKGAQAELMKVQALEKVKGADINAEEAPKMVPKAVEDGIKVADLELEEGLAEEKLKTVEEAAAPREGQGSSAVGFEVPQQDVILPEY

[11] = molecular target: Casein kinase I isoform gamma-3 (Homo sapiens) (UniProt Q9Y6M4)
Casein kinase I isoform gamma-3 (Homo sapiens), sequence (Q9Y6M4 whole entry, looked up, canonical isoform): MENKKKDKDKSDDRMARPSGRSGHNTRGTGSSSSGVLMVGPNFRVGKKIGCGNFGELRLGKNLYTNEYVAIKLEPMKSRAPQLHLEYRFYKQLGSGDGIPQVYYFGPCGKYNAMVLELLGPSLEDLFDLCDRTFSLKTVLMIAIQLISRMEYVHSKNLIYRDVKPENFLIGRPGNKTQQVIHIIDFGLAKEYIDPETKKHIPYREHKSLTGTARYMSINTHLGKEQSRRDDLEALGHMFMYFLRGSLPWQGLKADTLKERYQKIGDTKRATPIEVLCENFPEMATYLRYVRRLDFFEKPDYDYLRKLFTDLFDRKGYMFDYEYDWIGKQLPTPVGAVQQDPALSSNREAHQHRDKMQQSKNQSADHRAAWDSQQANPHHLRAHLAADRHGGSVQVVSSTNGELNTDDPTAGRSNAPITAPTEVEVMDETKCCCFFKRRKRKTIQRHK

[12] = molecular target: Serine/threonine-protein kinase VRK2 (Homo sapiens) (UniProt Q86Y07)
Serine/threonine-protein kinase VRK2 (Homo sapiens), sequence (Q86Y07 whole entry): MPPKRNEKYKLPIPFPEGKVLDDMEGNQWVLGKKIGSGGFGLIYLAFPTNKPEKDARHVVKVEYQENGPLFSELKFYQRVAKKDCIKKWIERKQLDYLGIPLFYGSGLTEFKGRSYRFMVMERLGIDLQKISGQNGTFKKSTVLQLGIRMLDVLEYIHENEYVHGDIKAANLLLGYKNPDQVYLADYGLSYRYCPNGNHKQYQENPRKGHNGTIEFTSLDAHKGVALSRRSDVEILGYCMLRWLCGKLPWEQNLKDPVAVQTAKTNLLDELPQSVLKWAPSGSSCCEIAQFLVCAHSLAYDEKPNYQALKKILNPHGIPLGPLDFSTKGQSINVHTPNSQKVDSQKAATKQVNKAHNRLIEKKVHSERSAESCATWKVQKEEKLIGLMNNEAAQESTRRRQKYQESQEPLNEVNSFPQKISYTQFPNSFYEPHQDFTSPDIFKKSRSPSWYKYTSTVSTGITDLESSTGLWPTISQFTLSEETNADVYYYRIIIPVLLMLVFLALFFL

[13] = molecular target: Mitogen-activated protein kinase 11 (Homo sapiens, UniProt Q15759)
Mitogen-activated protein kinase 11, sequence (Q15759 whole entry): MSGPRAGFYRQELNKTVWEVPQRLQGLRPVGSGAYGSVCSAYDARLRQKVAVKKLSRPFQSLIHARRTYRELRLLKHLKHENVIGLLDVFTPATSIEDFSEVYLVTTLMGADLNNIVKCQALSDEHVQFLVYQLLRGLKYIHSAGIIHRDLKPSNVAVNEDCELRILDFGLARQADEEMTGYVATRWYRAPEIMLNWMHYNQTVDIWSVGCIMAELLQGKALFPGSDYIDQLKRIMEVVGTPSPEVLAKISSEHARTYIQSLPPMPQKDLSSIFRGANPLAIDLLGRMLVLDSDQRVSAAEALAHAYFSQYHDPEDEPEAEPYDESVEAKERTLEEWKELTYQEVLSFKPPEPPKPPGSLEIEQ

[14] = molecular target: Serine/threonine-protein kinase 10 (Homo sapiens) (UniProt O94804)
Serine/threonine-protein kinase 10 (Homo sapiens), sequence (O94804 whole entry, looked up): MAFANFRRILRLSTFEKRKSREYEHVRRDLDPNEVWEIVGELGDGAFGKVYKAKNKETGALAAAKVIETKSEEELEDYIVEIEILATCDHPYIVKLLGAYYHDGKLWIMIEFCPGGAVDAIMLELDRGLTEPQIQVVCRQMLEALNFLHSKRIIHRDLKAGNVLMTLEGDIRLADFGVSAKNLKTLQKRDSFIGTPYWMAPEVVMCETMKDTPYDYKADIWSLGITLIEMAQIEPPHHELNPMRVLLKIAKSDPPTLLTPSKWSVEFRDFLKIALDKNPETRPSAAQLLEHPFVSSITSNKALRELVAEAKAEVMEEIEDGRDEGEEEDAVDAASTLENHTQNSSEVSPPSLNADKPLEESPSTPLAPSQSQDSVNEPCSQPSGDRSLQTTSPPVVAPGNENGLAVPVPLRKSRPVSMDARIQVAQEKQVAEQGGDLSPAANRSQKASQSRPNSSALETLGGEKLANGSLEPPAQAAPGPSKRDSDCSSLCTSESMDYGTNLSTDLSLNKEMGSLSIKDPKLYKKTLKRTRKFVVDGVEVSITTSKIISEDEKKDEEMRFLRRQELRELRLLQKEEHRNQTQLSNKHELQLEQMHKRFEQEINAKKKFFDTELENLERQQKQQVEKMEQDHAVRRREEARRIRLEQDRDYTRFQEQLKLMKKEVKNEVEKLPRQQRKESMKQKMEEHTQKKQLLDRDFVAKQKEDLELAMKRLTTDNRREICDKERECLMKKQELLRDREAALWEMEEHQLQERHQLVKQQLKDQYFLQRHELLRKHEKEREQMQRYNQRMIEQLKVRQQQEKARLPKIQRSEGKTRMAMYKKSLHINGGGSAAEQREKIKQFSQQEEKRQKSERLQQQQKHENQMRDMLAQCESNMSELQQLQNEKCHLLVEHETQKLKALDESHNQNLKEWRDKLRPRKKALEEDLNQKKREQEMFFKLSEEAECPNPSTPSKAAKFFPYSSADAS

[15] = molecular target: Serine/threonine-protein kinase PAK 4 (Homo sapiens) (UniProt O96013)
[16] = molecular target: Serine/threonine-protein kinase RIO2 (Homo sapiens) (UniProt Q9BVS4)
Serine/threonine-protein kinase RIO2 (Homo sapiens), sequence (Q9BVS4 whole entry, looked up): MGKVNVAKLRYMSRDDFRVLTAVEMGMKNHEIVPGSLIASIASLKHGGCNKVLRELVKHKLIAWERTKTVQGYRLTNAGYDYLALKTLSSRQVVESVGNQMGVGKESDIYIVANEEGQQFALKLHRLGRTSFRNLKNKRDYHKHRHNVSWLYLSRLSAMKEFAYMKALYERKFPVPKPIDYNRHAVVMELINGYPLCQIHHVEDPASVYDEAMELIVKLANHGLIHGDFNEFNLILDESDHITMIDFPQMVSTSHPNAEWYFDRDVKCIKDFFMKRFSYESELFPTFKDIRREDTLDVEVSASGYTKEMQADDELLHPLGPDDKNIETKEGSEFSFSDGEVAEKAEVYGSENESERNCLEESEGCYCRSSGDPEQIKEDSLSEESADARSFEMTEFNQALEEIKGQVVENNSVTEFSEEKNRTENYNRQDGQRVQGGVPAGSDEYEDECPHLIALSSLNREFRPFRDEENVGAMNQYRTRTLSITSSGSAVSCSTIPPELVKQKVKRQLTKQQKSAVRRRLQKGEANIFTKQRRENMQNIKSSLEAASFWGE

[17] = molecular target: TRAF2 and NCK-interacting protein kinase (Homo sapiens) (UniProt Q9UKE5)
[18] = molecular target: Serine/threonine-protein kinase PAK 5 (Homo sapiens) (UniProt Q9P286)
Serine/threonine-protein kinase PAK 5 (Homo sapiens), sequence (Q9P286 whole entry, looked up): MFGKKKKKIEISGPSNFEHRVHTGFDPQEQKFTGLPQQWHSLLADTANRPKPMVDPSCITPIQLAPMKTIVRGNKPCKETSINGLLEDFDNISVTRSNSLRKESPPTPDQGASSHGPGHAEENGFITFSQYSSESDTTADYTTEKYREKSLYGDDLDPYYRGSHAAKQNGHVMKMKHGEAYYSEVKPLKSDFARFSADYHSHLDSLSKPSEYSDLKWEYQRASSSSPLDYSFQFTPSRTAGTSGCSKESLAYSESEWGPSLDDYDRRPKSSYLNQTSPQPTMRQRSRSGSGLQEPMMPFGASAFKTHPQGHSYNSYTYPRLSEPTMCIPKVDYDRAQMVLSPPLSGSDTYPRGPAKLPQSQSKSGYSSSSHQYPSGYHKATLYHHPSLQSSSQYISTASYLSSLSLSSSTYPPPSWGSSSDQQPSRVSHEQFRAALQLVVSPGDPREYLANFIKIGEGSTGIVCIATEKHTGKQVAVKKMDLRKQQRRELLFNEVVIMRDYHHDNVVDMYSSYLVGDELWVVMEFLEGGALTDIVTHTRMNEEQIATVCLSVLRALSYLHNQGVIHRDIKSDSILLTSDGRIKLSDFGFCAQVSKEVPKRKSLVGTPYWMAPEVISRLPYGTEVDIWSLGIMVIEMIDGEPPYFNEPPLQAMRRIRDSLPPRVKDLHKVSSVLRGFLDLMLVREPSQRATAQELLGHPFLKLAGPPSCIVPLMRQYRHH

[19] = molecular target: T4, Serine/threonine-protein kinase 4 (Homo sapiens) (UniProt Q13043)
T4 sequence (whole entry): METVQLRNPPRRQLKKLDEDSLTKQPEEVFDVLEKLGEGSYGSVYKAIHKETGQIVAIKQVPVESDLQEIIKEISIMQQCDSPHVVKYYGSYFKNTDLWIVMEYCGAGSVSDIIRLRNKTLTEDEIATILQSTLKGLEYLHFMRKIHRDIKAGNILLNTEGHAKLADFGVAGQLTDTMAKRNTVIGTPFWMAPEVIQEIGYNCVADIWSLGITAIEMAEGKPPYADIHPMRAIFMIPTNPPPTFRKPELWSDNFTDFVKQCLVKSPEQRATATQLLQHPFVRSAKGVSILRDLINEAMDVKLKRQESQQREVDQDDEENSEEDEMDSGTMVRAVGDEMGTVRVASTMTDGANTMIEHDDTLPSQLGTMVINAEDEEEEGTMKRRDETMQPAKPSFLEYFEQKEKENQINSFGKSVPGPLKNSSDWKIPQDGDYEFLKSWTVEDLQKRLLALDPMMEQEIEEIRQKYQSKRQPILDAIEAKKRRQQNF

Ribosomal protein S6 kinase alpha-3 (Homo sapiens), sequence (P51812 whole entry): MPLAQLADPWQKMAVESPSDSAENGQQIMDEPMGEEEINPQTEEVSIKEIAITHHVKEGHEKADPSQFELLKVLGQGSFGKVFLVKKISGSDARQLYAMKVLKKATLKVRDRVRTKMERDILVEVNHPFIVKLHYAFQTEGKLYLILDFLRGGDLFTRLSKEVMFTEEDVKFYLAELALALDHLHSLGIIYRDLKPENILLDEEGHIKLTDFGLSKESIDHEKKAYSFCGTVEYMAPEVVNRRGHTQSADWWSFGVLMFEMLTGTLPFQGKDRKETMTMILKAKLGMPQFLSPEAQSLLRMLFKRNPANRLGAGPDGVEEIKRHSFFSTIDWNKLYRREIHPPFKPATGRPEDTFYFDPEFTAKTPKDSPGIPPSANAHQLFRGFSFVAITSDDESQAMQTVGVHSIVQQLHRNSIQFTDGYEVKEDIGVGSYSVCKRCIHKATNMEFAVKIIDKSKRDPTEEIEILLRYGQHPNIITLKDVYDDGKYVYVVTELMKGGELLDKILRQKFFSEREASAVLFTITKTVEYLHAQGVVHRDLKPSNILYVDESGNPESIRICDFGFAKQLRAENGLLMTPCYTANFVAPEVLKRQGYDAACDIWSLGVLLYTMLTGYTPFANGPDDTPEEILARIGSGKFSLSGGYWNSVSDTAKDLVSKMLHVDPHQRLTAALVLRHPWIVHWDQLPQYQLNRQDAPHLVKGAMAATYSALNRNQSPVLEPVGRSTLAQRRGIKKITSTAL

NCCNS(=O)(=O)c1cccc2c(Cl)cccc12
ΔTm [1]: 3.2 °C | ΔTm [2]: 0.5 °C | ΔTm [3]: 0.4 °C | ΔTm [4]: 0.3 °C | ΔTm [5]: 2.5 °C | ΔTm [6]: -0.1 °C | ΔTm [7]: -0.2 °C | ΔTm [8]: 0.2 °C | ΔTm [9]: 0.3 °C | ΔTm [10]: -0.1 °C | ΔTm [11]: 0.4 °C | ΔTm [12]: 0.1 °C | ΔTm [13]: -0.2 °C | ΔTm [14]: 0.8 °C | ΔTm [15]: 0.5 °C | ΔTm [16]: 0.2 °C | ΔTm [17]: 0 °C | ΔTm [18]: 0.1 °C | ΔTm [19]: 0.4 °C

COc1cc(/C=C/C(=O)CC(=O)/C=C/c2ccc(O)c(OC)c2)ccc1O [CURCUMIN]
ΔTm [1]: 6.9 °C | ΔTm [2]: 3.4 °C | ΔTm [3]: -0.2 °C | ΔTm [4]: 1.3 °C | ΔTm [5]: 3.4 °C | ΔTm [6]: 4 °C | ΔTm [7]: 4.4 °C | ΔTm [8]: 1.6 °C | ΔTm [9]: 1.8 °C | ΔTm [10]: 2.1 °C | ΔTm [11]: 0.3 °C | ΔTm [12]: 1.4 °C | ΔTm [13]: 3.7 °C | ΔTm [14]: 6.1 °C | ΔTm [15]: 3 °C | ΔTm [16]: 2.8 °C | ΔTm [17]: 5.9 °C | ΔTm [18]: 1.3 °C | ΔTm [19]: 5.5 °C

Nc1n[nH]c2nc3ccccc3nc12 [QUINOXALINE1]
ΔTm [1]: 1.3 °C | ΔTm [2]: 0.4 °C | ΔTm [3]: 0.4 °C | ΔTm [4]: 0.4 °C | ΔTm [5]: 0.6 °C | ΔTm [6]: 0.3 °C | ΔTm [7]: 1.3 °C | ΔTm [8]: 0.6 °C | ΔTm [9]: 0.4 °C | ΔTm [10]: 0.3 °C | ΔTm [11]: 0.4 °C | ΔTm [12]: 0.7 °C | ΔTm [13]: 1 °C | ΔTm [14]: 1.6 °C | ΔTm [15]: -0.3 °C | ΔTm [16]: 0.4 °C | ΔTm [17]: 0.7 °C | ΔTm [18]: 0.2 °C | ΔTm [19]: 0.8 °C

CN(C)S(=O)(=O)c1ccc2c(c1)/C(=C/c1cc3c([nH]1)CCCC3)C(=O)N2
ΔTm [1]: 1.7 °C | ΔTm [2]: 7.5 °C | ΔTm [3]: 1.2 °C | ΔTm [4]: 1.5 °C | ΔTm [5]: 2.5 °C | ΔTm [6]: 0.3 °C | ΔTm [7]: 5.3 °C | ΔTm [8]: -4.4 °C | ΔTm [9]: 0.6 °C | ΔTm [10]: 2.6 °C | ΔTm [11]: 0.6 °C | ΔTm [12]: 0.4 °C | ΔTm [13]: 1.1 °C | ΔTm [14]: 7.7 °C | ΔTm [15]: 1.3 °C | ΔTm [16]: -6.4 °C | ΔTm [17]: 4.2 °C | ΔTm [18]: 0.4 °C | ΔTm [19]: 8.7 °C

Brc1c(Br)c(Br)c2[nH]nnc2c1Br [TETRABROMOBENZOTRIAZOLE]
ΔTm [1]: 4.9 °C | ΔTm [2]: 1.5 °C | ΔTm [3]: 0.6 °C | ΔTm [4]: -1.2 °C | ΔTm [5]: 0.6 °C | ΔTm [6]: 2.4 °C | ΔTm [7]: 0.7 °C | ΔTm [8]: -0.1 °C | ΔTm [9]: -0.2 °C | ΔTm [10]: 0.4 °C | ΔTm [11]: -0.3 °C | ΔTm [12]: -0.5 °C | ΔTm [13]: 0.8 °C | ΔTm [14]: 0 °C | ΔTm [15]: -0.1 °C | ΔTm [16]: 3.1 °C | ΔTm [17]: -0.8 °C | ΔTm [18]: 0.2 °C | ΔTm [19]: 3.3 °C

CC(C)n1cnc2/c(=N/c3cccc(Cl)c3)nc(NCCO)[nH]c21
ΔTm [1]: 2.3 °C | ΔTm [2]: 4.6 °C | ΔTm [3]: 1.1 °C | ΔTm [4]: 0.4 °C | ΔTm [5]: 1.4 °C | ΔTm [6]: 0.3 °C | ΔTm [7]: 2.9 °C | ΔTm [8]: 3.8 °C | ΔTm [9]: 0.2 °C | ΔTm [10]: 1.2 °C | ΔTm [11]: 7 °C | ΔTm [12]: 2.5 °C | ΔTm [13]: -0.1 °C | ΔTm [14]: 2 °C | ΔTm [15]: 2.9 °C | ΔTm [16]: 1 °C | ΔTm [17]: 3.1 °C | ΔTm [18]: 1.6 °C | ΔTm [19]: 3.4 °C

Cc1nc2sccn2c(=O)c1CCN1CCC(=C(c2ccccc2)c2ccc(F)cc2)CC1
ΔTm [1]: 6.1 °C | ΔTm [2]: 2.8 °C | ΔTm [3]: 1.1 °C | ΔTm [4]: 0 °C | ΔTm [5]: 1.6 °C | ΔTm [6]: 0.5 °C | ΔTm [7]: 0.3 °C | ΔTm [8]: 0.8 °C | ΔTm [9]: 0.2 °C | ΔTm [10]: -0.2 °C | ΔTm [11]: 0.3 °C | ΔTm [12]: 0.2 °C | ΔTm [13]: -0.7 °C | ΔTm [14]: 3.1 °C | ΔTm [15]: 0.8 °C | ΔTm [16]: 4.5 °C | ΔTm [17]: 2.9 °C | ΔTm [18]: 1 °C | ΔTm [19]: 3.6 °C

CCOC(=O)c1cnc2oc3ccc(O)cc3c2c1-c1ccccc1
ΔTm [1]: 5.2 °C | ΔTm [2]: 4.4 °C | ΔTm [3]: 0.5 °C | ΔTm [4]: -0.6 °C | ΔTm [5]: 1.3 °C | ΔTm [6]: 1.9 °C | ΔTm [7]: 0 °C | ΔTm [8]: 0.3 °C | ΔTm [9]: 0.2 °C | ΔTm [10]: 0.8 °C | ΔTm [11]: 1.1 °C | ΔTm [12]: 0.3 °C | ΔTm [13]: -0.6 °C | ΔTm [14]: 2.9 °C | ΔTm [15]: 0.7 °C | ΔTm [16]: 1.2 °C | ΔTm [17]: 1.3 °C | ΔTm [18]: 0.5 °C | ΔTm [19]: 3.4 °C

CC(C)(C)n1nc(-c2ccc(Cl)cc2)c2c(N)ncnc21
ΔTm [1]: 0.7 °C | ΔTm [2]: 2.1 °C | ΔTm [3]: 0.4 °C | ΔTm [4]: -0.2 °C | ΔTm [5]: 2.3 °C | ΔTm [6]: 2.1 °C | ΔTm [7]: 1.2 °C | ΔTm [8]: -0.1 °C | ΔTm [9]: -0.2 °C | ΔTm [10]: 0 °C | ΔTm [11]: 0.6 °C | ΔTm [12]: 0.3 °C | ΔTm [13]: 4.6 °C | ΔTm [14]: 4.7 °C | ΔTm [15]: 1 °C | ΔTm [16]: 3.1 °C | ΔTm [17]: 1.4 °C | ΔTm [18]: 0.7 °C | ΔTm [19]: 2.1 °C

O=c1c2ccccc2[nH]c(=S)n1CCN1CCC(=C(c2ccc(F)cc2)c2ccc(F)cc2)CC1 [DIACYLGLYCEROL KINASE INHIBITOR II]
ΔTm [1]: 0.9 °C | ΔTm [2]: 1.2 °C | ΔTm [3]: -0.5 °C | ΔTm [4]: -0.6 °C | ΔTm [5]: 0.8 °C | ΔTm [6]: 0.4 °C | ΔTm [7]: 1.5 °C | ΔTm [8]: -0.1 °C | ΔTm [9]: -0.1 °C | ΔTm [10]: 0.2 °C | ΔTm [11]: -1.3 °C | ΔTm [12]: -0.2 °C | ΔTm [13]: 1.2 °C | ΔTm [14]: 3.6 °C | ΔTm [15]: 1.3 °C | ΔTm [16]: 3.5 °C | ΔTm [17]: 0 °C | ΔTm [18]: -0.2 °C | ΔTm [19]: 2 °C

N#CC(C#N)=Cc1ccc(O)c(O)c1 [TYRPHOSTIN 23]
ΔTm [1]: 1.6 °C | ΔTm [2]: 0.2 °C | ΔTm [3]: -0.1 °C | ΔTm [4]: -0.2 °C | ΔTm [5]: 0.6 °C | ΔTm [6]: 0.2 °C | ΔTm [7]: -0.2 °C | ΔTm [8]: -0.2 °C | ΔTm [9]: 0.1 °C | ΔTm [10]: 0.4 °C | ΔTm [11]: 0.3 °C | ΔTm [12]: 0.2 °C | ΔTm [13]: 0.3 °C | ΔTm [14]: 0.5 °C | ΔTm [15]: -0.1 °C | ΔTm [16]: 1.5 °C | ΔTm [17]: 0.2 °C | ΔTm [18]: 0.5 °C | ΔTm [19]: 0.6 °C
